From US9750747B2, “Treatments involving eslicarbazepine acetate or eslicarbazepine” (BAIL-PORTELA & CA, S.A., priority 2011, dated 2017) come the findings set out here.

Type in all cases: cell-based
Experiment [1] addresses T1, α1β2γ2 GABA receptors (Homo sapiens, UniProt P14867+P18507+P47870).
T1 construct: host or cells: Ltk cells, expression induced with dexamethasone
In words: whole-cell patch-clamp, sub-maximal GABA inward currents in stably transfected Ltk cells. As for the experimental part: (§1) Carbamazepine (CBZ) aggravates absence seizures in ‘generalized absence epilepsy rats from. Strasbourg’. One putative mechanism for the aggravation is through its reported potentiation of GABAA currents. A study was carried out to determine the effect of eslicarbazepine, R-licarbazepine and carbamazepine on sub-maximal GABA currents in Ltk cells stably expressing α1β2γ2, α2β2γ2, α3β2γ2 or α5β2γ2 GABA-receptors. The whole-cell patch-clamp technique was used to investigate the effects of the test compounds on GABAA receptors.
(§2) Used Ltk cells were stably transfected with recombinant GABAA cDNAs: α1β2γ2, α2β2γ2, α3β2γ2 or α5β2γ2 (B'SYS GmbH, Switzerland). […] For the electrophysiological experiments cells were cultivated, at a density that enabled single cells to be measured, in medium without antibiotics or antimycotics. Cells were tested 24-48 hours following induction of transgene expression with dexamethasone.
(§3) The whole-cell patch clamp recordings from transfected Ltk cells (voltage-clamped at a holding potential of −80 mV) were made using a EPC-7, HEKA Electronics amplifier. GABA inward-currents were measured upon application of 1 or 2 μM GABA to patch-clamped cells (at an EC5).
(§4) Analysis of Variance (ANOVA) with post test multisample comparison (Dunnett) was conducted with GraphPad Prism 4 Software.

The target of experiment [2] is T2, α2β2γ2 GABA receptors (Homo sapiens, UniProt P18507+P47869+P47870).
T2 construct: host or cells: Ltk cells, expression induced with dexamethasone
T2 sequence (P47869 29-451): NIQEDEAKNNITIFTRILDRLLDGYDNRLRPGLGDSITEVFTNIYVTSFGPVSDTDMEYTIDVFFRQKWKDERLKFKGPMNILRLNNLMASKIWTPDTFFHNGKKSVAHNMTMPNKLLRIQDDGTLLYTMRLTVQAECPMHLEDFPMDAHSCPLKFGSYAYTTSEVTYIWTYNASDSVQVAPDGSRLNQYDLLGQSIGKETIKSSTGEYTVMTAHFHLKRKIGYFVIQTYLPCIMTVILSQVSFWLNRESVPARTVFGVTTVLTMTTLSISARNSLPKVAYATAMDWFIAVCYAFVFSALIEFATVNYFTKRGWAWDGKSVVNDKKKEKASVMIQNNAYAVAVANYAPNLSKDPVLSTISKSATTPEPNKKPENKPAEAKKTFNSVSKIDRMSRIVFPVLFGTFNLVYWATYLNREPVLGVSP
T2 sequence (P47870 25-512 limits assumed): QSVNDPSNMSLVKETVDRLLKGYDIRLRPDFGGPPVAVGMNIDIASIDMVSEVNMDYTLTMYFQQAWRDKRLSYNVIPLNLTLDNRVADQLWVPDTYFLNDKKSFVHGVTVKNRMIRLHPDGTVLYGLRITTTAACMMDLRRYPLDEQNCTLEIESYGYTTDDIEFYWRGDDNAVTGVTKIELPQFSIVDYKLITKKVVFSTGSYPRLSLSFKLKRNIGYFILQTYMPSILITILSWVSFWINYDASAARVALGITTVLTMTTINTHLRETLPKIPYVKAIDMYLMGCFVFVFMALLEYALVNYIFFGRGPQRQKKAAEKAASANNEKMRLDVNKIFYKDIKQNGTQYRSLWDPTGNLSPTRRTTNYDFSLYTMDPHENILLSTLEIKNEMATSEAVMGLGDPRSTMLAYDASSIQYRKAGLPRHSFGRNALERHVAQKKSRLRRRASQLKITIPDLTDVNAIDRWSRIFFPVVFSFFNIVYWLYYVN
T2 sequence (P18507 40-475): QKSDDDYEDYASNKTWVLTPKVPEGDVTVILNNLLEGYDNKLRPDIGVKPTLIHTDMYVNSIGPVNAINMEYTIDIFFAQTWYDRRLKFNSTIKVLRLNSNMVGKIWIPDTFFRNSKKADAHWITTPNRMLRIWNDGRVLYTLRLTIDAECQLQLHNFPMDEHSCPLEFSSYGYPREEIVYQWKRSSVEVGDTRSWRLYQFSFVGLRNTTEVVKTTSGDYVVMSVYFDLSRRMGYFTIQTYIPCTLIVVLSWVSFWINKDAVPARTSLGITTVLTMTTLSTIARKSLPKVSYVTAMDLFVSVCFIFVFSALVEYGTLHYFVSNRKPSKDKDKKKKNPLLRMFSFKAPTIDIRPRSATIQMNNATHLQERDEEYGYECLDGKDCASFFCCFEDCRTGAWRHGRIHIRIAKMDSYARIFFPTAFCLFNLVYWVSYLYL
The description is as above. As for the experimental part:
as §1, §2, §3, §4

For experiment [3], the target named is T3, α3β2γ2 GABA receptors (Homo sapiens, UniProt P18507+P34903+P47870).
T3 construct: host or cells: Ltk cells, expression induced with dexamethasone
T3 sequence (P34903 29-492): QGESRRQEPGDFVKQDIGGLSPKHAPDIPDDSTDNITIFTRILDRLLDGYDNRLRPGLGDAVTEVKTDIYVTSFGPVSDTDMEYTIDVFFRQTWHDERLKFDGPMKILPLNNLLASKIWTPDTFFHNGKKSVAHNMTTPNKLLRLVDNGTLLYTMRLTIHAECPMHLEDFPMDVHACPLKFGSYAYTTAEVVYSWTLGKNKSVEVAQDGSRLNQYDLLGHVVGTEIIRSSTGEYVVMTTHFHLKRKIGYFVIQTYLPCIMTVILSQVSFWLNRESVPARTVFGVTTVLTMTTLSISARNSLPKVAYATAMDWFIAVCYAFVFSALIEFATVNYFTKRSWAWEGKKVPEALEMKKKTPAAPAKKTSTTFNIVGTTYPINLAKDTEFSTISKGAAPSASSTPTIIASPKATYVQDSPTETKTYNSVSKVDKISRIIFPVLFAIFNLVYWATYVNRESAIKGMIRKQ
T3 sequence (P47870 25-512 limits assumed): as the sequence (P47870 25-512 limits assumed) above
T3 sequence (P18507 40-475): as the sequence (P18507 40-475) above
The description is as above. On the procedure:
as §1, §2, §3, §4

In experiment [4] the target is T4, α5β2γ2 GABA receptors (Homo sapiens, UniProt P18507+P31644+P47870).
T4 construct: host or cells: Ltk cells, expression induced with dexamethasone
The description is as above. As for the experimental part:
as §1, §2, §3, §4

The target in experiment [5] is T5, human T-type calcium channels hCav3.2 (Homo sapiens, UniProt O95180).
T5 construct: expressed in transfected cells; host or cells: HEK 293 cells (European Collection of Animal Cell Culture)
T5 sequence (O95180 whole entry): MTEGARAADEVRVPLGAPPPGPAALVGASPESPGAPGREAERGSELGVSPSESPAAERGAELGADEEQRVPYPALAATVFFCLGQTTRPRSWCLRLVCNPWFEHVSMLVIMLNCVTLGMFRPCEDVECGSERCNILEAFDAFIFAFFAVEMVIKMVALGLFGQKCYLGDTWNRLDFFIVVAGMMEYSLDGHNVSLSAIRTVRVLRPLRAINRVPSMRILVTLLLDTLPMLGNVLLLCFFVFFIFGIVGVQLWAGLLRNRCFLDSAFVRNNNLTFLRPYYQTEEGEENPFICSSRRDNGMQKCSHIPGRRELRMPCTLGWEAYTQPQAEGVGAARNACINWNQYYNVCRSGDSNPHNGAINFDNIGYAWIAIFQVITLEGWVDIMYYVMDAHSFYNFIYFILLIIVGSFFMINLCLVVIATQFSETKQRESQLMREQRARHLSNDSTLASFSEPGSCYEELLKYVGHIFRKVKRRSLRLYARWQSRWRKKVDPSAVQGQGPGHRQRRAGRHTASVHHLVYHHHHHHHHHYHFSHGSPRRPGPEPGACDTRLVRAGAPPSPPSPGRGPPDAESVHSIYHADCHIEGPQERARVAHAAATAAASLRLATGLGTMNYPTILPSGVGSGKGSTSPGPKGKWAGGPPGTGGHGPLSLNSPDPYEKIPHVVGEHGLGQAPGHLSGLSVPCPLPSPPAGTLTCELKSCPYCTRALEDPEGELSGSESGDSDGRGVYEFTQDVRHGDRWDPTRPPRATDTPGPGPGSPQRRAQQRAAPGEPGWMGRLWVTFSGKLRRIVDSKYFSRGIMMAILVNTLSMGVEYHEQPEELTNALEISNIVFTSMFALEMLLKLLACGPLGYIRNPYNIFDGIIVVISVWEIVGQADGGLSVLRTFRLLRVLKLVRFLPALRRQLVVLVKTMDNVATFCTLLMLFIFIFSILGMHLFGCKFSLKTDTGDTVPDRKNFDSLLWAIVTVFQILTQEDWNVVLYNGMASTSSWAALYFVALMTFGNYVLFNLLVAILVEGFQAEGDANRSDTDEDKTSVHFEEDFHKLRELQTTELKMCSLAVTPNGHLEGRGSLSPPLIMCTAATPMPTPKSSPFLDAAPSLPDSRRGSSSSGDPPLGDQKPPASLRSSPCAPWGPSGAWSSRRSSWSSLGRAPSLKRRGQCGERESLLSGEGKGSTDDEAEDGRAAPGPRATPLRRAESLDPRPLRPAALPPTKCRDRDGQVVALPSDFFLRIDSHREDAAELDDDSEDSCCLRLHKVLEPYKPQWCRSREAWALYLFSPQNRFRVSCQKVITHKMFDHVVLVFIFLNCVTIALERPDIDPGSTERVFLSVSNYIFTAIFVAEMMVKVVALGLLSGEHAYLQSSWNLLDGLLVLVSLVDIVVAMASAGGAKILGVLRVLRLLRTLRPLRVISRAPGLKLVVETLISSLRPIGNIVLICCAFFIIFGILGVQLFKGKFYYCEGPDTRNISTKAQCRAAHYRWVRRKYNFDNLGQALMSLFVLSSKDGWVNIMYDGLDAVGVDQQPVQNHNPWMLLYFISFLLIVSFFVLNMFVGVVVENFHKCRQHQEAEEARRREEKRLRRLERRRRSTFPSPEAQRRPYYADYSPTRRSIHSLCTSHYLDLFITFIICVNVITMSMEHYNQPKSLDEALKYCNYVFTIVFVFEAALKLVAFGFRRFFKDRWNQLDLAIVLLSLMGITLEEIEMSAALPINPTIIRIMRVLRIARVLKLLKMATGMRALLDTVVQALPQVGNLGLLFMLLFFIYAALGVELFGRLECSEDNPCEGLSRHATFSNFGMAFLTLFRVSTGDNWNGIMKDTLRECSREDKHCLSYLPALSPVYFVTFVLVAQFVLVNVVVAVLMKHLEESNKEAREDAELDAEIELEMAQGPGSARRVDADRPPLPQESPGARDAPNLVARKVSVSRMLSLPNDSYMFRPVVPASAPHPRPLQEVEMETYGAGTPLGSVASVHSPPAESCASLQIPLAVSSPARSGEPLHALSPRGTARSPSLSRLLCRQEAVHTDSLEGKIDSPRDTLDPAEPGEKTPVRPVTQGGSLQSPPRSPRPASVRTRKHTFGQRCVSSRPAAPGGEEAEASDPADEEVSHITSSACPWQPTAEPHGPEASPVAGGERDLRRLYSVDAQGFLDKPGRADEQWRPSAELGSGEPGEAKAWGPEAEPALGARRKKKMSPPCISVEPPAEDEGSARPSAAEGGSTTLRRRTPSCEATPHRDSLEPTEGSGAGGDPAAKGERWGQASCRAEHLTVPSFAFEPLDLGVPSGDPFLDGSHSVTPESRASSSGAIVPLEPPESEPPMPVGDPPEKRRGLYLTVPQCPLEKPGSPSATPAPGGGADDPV
In words: whole-cell patch-clamp, calcium peak currents in stably transfected HEK 293 cells. Further details: blocked calcium peak currents by: unit not given here. Particulars: for Relative current amplitude (%): hCav3.2 in HEK 293 cells; for IC50: two site binding model. On the procedure: A study was carried out to determine the effect of eslicarbazepine.
Cells were stably transfected with hCav3.2 cDNA.
Calcium inward currents were measured upon depolarization of the cell membrane to −25 mV for 50 ms from a holding potential of −80 mV. This voltage protocol was run at intervals of 10 s until stabilization of evoked hCav3.2 currents. […] Vehicle was either bath solution or 0.2% DMSO.
Analysis of variance (ANOVA) with post test multisample comparison (Dunnett) was conducted with GraphPad Prism 4 Software. IC50 were calculated with the equation: […]
A general note: The patch-clamp technique gives a direct electrical read-out from membranes.

In experiment [6] the test system is α1β2γ2, α2β2γ2, α3β2γ2 or α5β2γ2 GABA-receptors. As to the kind of experiment: overall effect on sub-maximal GABA currents (summary of Example 1). The following applies: Ltk cells, all four receptor subtypes. On the procedure:
as §1
Used Ltk cells were stably transfected with recombinant GABAA cDNAs: α1β2γ2, α2β2γ2, α3β2γ2 or α5β2γ2 (B'SYS GmbH, Switzerland). Cells were maintained in a humidified atmosphere (95% relative humidity) with 5% CO2 and were grown in D-MEM/F-12 (1×, liquid, with GlutaMax 1) supplemented with 9% foetal bovine serum and 0.9% Penicillin/Streptomycin solution (Gibco BRL). For the electrophysiological experiments cells were cultivated, at a density that enabled single cells to be measured, in medium without antibiotics or antimycotics. Cells were tested 24-48 hours following induction of transgene expression with dexamethasone.
Cells were continuously perfused with bath solution (NaCl 137 mM, KCl 4 mM, CaCl2 1.8 mM, MgCl2 1 mM, D-Glucose 10 mM HEPES 10 mM, pH 7.4). […] GABA inward-currents were measured upon application of 1 or 2 μM GABA to patch-clamped cells (at an EC5). […]

Where [7] appears, read: 50 μM with GABA at EC5, Ltk cells, Table 2.
The mark [8] stands for this setting: 100 μM with GABA at EC5, Ltk cells, Table 2.
Where [9] appears, read: 250 μM with GABA at EC5, Ltk cells, Table 2.
Where [10] appears, read: 500 μM with GABA at EC5, Ltk cells, Table 2.
Setting [11] is: 1000 μM with GABA at EC5, Ltk cells, Table 2.
[12] abbreviates: high affinity fit, read-out: hCav3.2 IC50 (μM) High affinity.
Setting [13] is: low affinity fit, read-out: hCav3.2 IC50 (μM) Low affinity.
The mark [14] stands for this setting: 50 μM with GABA at EC5, Ltk cells, Table 1.
[15] abbreviates: 100 μM with GABA at EC5, Ltk cells, Table 1.
The mark [16] stands for this setting: 250 μM with GABA at EC5, Ltk cells, Table 1.
[17] abbreviates: 500 μM with GABA at EC5, Ltk cells, Table 1.

Read-outs that look alike come from different tables or passages of the source.

T1 sequence (P14867 28-456): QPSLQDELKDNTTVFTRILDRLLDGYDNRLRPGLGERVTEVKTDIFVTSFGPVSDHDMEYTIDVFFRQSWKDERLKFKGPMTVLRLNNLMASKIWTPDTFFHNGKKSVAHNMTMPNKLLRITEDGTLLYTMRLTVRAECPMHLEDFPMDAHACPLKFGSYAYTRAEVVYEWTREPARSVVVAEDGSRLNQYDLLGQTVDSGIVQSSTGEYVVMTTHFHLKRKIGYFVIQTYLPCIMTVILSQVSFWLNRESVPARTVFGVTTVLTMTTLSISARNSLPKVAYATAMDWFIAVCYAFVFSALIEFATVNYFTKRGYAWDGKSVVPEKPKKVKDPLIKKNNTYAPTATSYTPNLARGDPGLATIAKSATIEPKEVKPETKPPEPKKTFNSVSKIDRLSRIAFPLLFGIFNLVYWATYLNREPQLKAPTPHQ
T1 sequence (P47870 25-512 limits assumed): as the sequence (P47870 25-512 limits assumed) above
T1 sequence (P18507 40-475): as the sequence (P18507 40-475) above

In the case of `NC(=O)N1c2ccccc2C=Cc2ccccc21` [Carbamazepine, 5H-dibenzo[b,f]azepine-5-carboxamide], the “Current stimulation (%) α1β2γ2” value in experiment [1] (setting [7]) turned out to be 104.30 ± 5.02%; in experiment [1] (setting [8]) it was 117.38 ± 4.94%; in experiment [1] (setting [9]) it was 115.68 ± 5.31%; in experiment [1] (setting [10]), 132.42 ± 5.31 %; in experiment [1] (setting [11]), 150.26 ± 15.48 %. For the same molecule, the “Current stimulation (%) α2β2γ2” value in experiment [2] (setting [7]) is 97.94 ± 3.34%; in experiment [2] (setting [8]), 111.36 ± 2.65%; in experiment [2] (setting [9]), 109.03 ± 7.61%; in experiment [2] (setting [10]) it was 103.60 ± 7.61%; in experiment [2] (setting [11]), 104.18 ± 2.66%. Besides, the “Current stimulation (%) α3β2γ2” value was 93.32 ± 4.07% in experiment [3] (setting [7]); 112.76 ± 5.40% in experiment [3] (setting [8]); 131.06 ± 9.39% in experiment [3] (setting [9]); 120.27 ± 11.81% in experiment [3] (setting [10]); 166.66 ± 21.00 % in experiment [3] (setting [11]). For the same molecule, the “Current stimulation (%) α5β2γ2” value turned out to be 103.82 ± 1.50% in experiment [4] (setting [7]); 103.83 ± 4.53% in experiment [4] (setting [8]); 93.59 ± 4.30% in experiment [4] (setting [9]); 80.65 ± 5.86% in experiment [4] (setting [10]); 63.01 ± 4.50 % in experiment [4] (setting [11]). Further, in experiment [5], the “effect on hCav3.2 calcium peak currents (in words)” value was “dose dependently inhibited”. Moreover, the “Relative current amplitude (%)” value in experiment [5] (25 μM) is 87.58 ± 2.94%; in experiment [5] (50 μM) it was 76.53 ± 5.48%; in experiment [5] (100 μM), 69.98 ± 4.47%; in experiment [5] (250 μM), 59.47 ± 6.06 %; in experiment [5] (500 μM), 45.66 ± 7.45 %. The values for the IC50 in experiment [5] (setting [12]) and in experiment [5] (setting [13]) were 27.1 µM and 711 µM, respectively.

Take `COCC(=O)O[C@]1(CCN(C)CCCc2nc3ccccc3[nH]2)CCc2cc(F)ccc2[C@@H]1C(C)C` [Mibefradil]: in experiment [5], the “effect on hCav3.2 calcium peak currents (in words)” value was “dose dependently inhibited”.

Take `Cc1ncc2n1-c1ccc(Cl)cc1C(c1ccccc1F)=NC2` [Midazolam]: the “Current stimulation (%) α1β2γ2” value in experiment [1] (3 μM with GABA at EC5, Ltk cells, Table 1) is recorded as 184.81 ± 32.93 %.

Turning to `NC(=O)N1c2ccccc2CC(=O)c2ccccc21` [Oxcarbazepine, 10,11-dihydro-10-oxo-5H-dibenz[b,f]azepine-5-carboxamide], the “effect on hCav3.2 currents (in words)” value in experiment [5] (up to 30 μM) is recorded as “devoid of effect”.

Take `NC(=O)N1c2ccccc2C[C@@H](O)c2ccccc21` [R-licarbazepine]: the “Current stimulation (%) α1β2γ2” value in experiment [1] (setting [14]) is given as 99.85 ± 1.18%; in experiment [1] (setting [15]) it was 92.53 ± 4.53%; in experiment [1] (setting [16]) it was 91.73 ± 4.69%; in experiment [1] (setting [17]), 95.83 ± 6.63%. Further, the “Current stimulation (%) α2β2γ2” value in experiment [2] (setting [14]) turned out to be 96.48 ± 2.11%; in experiment [2] (setting [15]) it was 97.03 ± 2.27%; in experiment [2] (setting [16]), 93.79 ± 3.09%; in experiment [2] (setting [17]), 87.75 ± 1.94 %. The “Current stimulation (%) α3β2γ2” value in experiment [3] (setting [14]) is 99.53 ± 2.65%; in experiment [3] (setting [15]), 100.38 ± 1.56%; in experiment [3] (setting [16]), 102.94 ± 3.34%; in experiment [3] (setting [17]) it was 97.35 ± 2.91%. In addition, the “Current stimulation (%) α5β2γ2” value in experiment [4] (setting [14]) is listed as 96.13 ± 0.57%; in experiment [4] (setting [15]) it was 94.09 ± 1.27%; in experiment [4] (setting [16]), 97.24 ± 1.58%; in experiment [4] (setting [17]) it was 92.25 ± 1.29%. Further, the “effect on hCav3.2 calcium peak currents (in words)” value in experiment [5] is “dose dependently inhibited”. In addition, the “Relative current amplitude (%)” value worked out at 98.42 ± 1.33% in experiment [5] (0.3 μM); 92.43 ± 1.41% in experiment [5] (1 μM); 88.21 ± 1.03 % in experiment [5] (3 μM); 82.92 ± 1.29 % in experiment [5] (10 μM); 78.21 ± 2.14 % in experiment [5] (30 μM); 73.86 ± 3.78 % in experiment [5] (50 μM). Further, the “Relative current amplitude (%)” value was 71.61 ± 1.68 % in experiment [5] (100 μM), 64.52 ± 3.05 % in experiment [5] (250 μM), 58.10 ± 2.74 % in experiment [5] (500 μM) and 39.37 ± 5.33 % in experiment [5] (1000 μM). Besides, the IC50 worked out at 6.54 µM in experiment [5] (setting [12]) and 883 µM in experiment [5] (setting [13]). For the same molecule, the “effects upon sub-maximal GABA currents (in words)” value in experiment [6] was “devoid of effects”.

With `CCCC(CCC)C(=O)O` [valproic acid], the “blocked calcium peak currents by” value in experiment [5] (1 mM, n=8 cells) came out at 66.15±2.05.

For orientation: IC50 means the concentration at which inhibition is half-maximal.
